Test results: PMC3379994, “Comprehensive Analysis of Interactions between the Src-Associated Protein in Mitosis of 68 kDa and the Human Src-Homology 3 Proteome” (PLoS ONE, 2012)

What was measured:
[1] = target: T1, β-Pix-SH3 (Homo sapiens, UniProt Q14155); conditions: cited from earlier work
T1 construct: gene ARHGEF7; β-Pix SH3 domain
T1 sequence (Q14155 184-243): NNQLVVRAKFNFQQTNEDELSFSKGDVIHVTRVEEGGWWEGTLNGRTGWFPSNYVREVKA
Text: Remarkably, Kd values calculated for the Sam68-SH3-interactions (considering the aforementioned correction value) lie in the low nanomolar range (cf. Fig. 1B). This is unexpected for SH3 domains, whose affinities are considered to lie in the low micromolar range [2], [51]. However, critical examination of the literature challenges the generality of the latter proposition. […] This can have a significant influence on binding-strength, as illustrated for instance for the Abp1-SH3 domain, comprising a Kd-value of 100 µM to a 14-mer ligand-peptide, and 40 µM after elongation to a 17-mer peptide. Nevertheless, some values obtained for Sam68-SH3 interactions still are one order of magnitude lower than even the best reported in the literature. Likely, this is due to an artifical avidity effect resulting from the use of the SH3-phages. As the SH3 domains bind to more than one of the PxxP-motifs, it is conceivable that one phage-particle docks to two or more PxxP-motifs of an individual Sam68 molecule via multiple SH3 domains. Consequently, even after dissociation of one SH3-PxxP-pair, the phage would still be retained by the protein. Kinetically, this corresponds to a decrease in the off-rate and concomitantly to a decrease in the Kd value. The affinity gain of the interaction is not due to cooperativity, as is evident from the Hill-transformed ELISA data yielding Hill-coefficients α of 1.0. […]

[2] = target: T2, IS2#3 (Homo sapiens, UniProt Q9NZM3); conditions: n = 3
T2 construct: gene ITSN2
T2 sequence (Q9NZM3 981-1039): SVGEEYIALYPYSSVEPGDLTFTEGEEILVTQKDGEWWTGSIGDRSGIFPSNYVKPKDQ
Description: (§1) To characterize the binding of SH3-phages to recombinant proteins, phage-ELISA analyses were performed. First, 1 µg of recombinant protein per well was immobilized on 96-well MaxiSorp plates (Nunc) over night. After washing thrice with PBS/T (PBS with 0.1 % Tween-20) and blocking with 5 % BSA in PBS, dilution-series of the respective phage-supernatants in 2×YTAmp,Kana were added and incubated for 1 h. After washing 10 times with PBS/T, an HRP-coupled anti-M13-antibody (GE Healthcare, 27-9421-01) diluted 1 : 5000 in blocking solution was added for 1 h. After washing again 10 times, TMB substrate solution was added, the reaction finally stopped by addition of 0.5 M H2SO4, and the result read out by measuring OD450.
(§2) First, we aimed at quantifying the binding affinities of the SH3-displaying phages to Sam68. To this end, we established a phage-ELISA procedure to separately analyse phage supernatants of the ten individual SH3-phages. In brief, His-Sam68 was coated to a 96-well plate, blocked and incubated with a dilution series of phage supernatants. Finally, bound phages were detected using an anti-M13-specific HRP-coupled antibody. As depicted in Fig. 1A, binding curves were obtained that are typical for a simple ligand-receptor relationship as is expected for an SH3-domain-PxxP-interaction showing no allosteric effects. Kd-values can not be deduced from these curves in the first instance, because the concentration of SH3 domains in the supernatants is unknown due to each phage particle presenting many copies on its surface. […]
(§3) Figure 1 Analysis of Sam68-binding SH3 domains in vitro. […] The amounts of bound phages were measured using a horseradish peroxidase-conjugated anti-M13-specific antibody with TMB-substrate detection at 450 nm (mean of three independent experiments, normalized to maximum OD-values). […] Bound proteins were eluted and Sam68 was detected by western blot analysis. […]

[3] = target: Hck (Homo sapiens, UniProt P08631); conditions: n = 3
Chain of Hck (P08631 78-138): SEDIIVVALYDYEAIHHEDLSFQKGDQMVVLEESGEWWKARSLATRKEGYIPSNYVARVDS
Description: as §1, §2, §3

[4] = target: Src (Homo sapiens, UniProt P12931); conditions: n = 3
Description: as §1, §2, §3

[5] = target: Nck1#2 (Homo sapiens, UniProt P16333); conditions: n = 3
Description: as §1, with “OD450. […]” for “OD450.”
First, we aimed at quantifying the binding affinities of the SH3-displaying phages to Sam68. […] Finally, bound phages were detected using an anti-M13-specific HRP-coupled antibody. […]
as §3

Row | Kd [2] | Kd [3] | Kd [4] | Kd [5] | Substance | Kd [1]
1 | – | – | – | – | Pak2 | 59 nM
2 | 59 nM | 31 nM | 6 nM | 31 nM | Src-associated in mitosis 68 kDa (KHDRBS1), full-length, N-terminally His-tagged recombinant [Sam68] | –
